Source: the NIST ThermoML archive (doi:10.1016/j.fluid.2012.06.031)
Numbers after ± are expanded uncertainties.

Experiments:
[1] = 298.15 K; 101.33 kPa; Liquid; Pycnometric method
[2] = refractive index (Na D-line) (dimensionless); details: 298.15 K; 101.33 kPa; Liquid; Standard Abbe refractometry
[3] = refractive index (Na D-line) (dimensionless); xn = mol fraction of the nth substance listed; details: 298.15 K, 101 kPa, Liquid, Standard Abbe refractometry
[4] = excess molar enthalpy (molar enthalpy of mixing); xn = mol fraction of the nth substance listed; details: 298.15 K, 101 kPa, Liquid, solution calorimetry
[5] = xn = mol fraction of the nth substance listed; details: 298.15 K, 101 kPa, Liquid, Pycnometric method

CCCO [propan-1-ol]
mass density [1]: 799.6 ± 0.61 kg/m3 | refractive index [2]: 1.3832 ± 0.0007

CC(C)CC(C)(C)C [2,2,4-trimethylpentane] + CCCO
refractive index ([3]; x2 = 0.0502): 1.3885 ± 0.00045 | refractive index ([3]; x2 = 0.1002): 1.38816 ± 0.00045 | refractive index ([3]; x2 = 0.1504): 1.38785 ± 0.00045 | refractive index ([3]; x2 = 0.1999): 1.38759 ± 0.00044 | refractive index ([3]; x2 = 0.3): 1.38712 ± 0.00044 | refractive index ([3]; x2 = 0.3999): 1.38669 ± 0.00043 | refractive index ([3]; x2 = 0.5): 1.38627 ± 0.00043 | refractive index ([3]; x2 = 0.6001): 1.3858 ± 0.00042 | refractive index ([3]; x2 = 0.7): 1.38526 ± 0.00042 | refractive index ([3]; x2 = 0.7999): 1.38462 ± 0.00042 | refractive index ([3]; x2 = 0.85): 1.38426 ± 0.00042 | refractive index ([3]; x2 = 0.9): 1.38387 ± 0.00041 | refractive index ([3]; x2 = 0.9501): 1.38345 ± 0.00041 | excess molar enthalpy ([4]; x2 = 0.0516): 0.0974 ± 0.001 kcal/mol | excess molar enthalpy ([4]; x2 = 0.1): 0.1255 ± 0.00117 kcal/mol | excess molar enthalpy ([4]; x2 = 0.15): 0.1338 ± 0.00122 kcal/mol | excess molar enthalpy ([4]; x2 = 0.2001): 0.1457 ± 0.00131 kcal/mol | excess molar enthalpy ([4]; x2 = 0.3001): 0.1564 ± 0.00139 kcal/mol | excess molar enthalpy ([4]; x2 = 0.4001): 0.1561 ± 0.00139 kcal/mol | excess molar enthalpy ([4]; x2 = 0.5002): 0.144 ± 0.00129 kcal/mol | excess molar enthalpy ([4]; x2 = 0.6001): 0.1255 ± 0.00117 kcal/mol | excess molar enthalpy ([4]; x2 = 0.7048): 0.0969 ± 0.00098 kcal/mol | excess molar enthalpy ([4]; x2 = 0.8): 0.0709 ± 0.000837 kcal/mol | excess molar enthalpy ([4]; x2 = 0.85): 0.0561 ± 0.000765 kcal/mol | excess molar enthalpy ([4]; x2 = 0.8998): 0.0388 ± 0.000669 kcal/mol | excess molar enthalpy ([4]; x2 = 0.9499): 0.0204 ± 0.000598 kcal/mol | mass density ([5]; x2 = 0.0502): 689.82 ± 0.56 kg/m3 | mass density ([5]; x2 = 0.1002): 692.19 ± 0.56 kg/m3 | mass density ([5]; x2 = 0.1504): 694.9 ± 0.56 kg/m3 | mass density ([5]; x2 = 0.1999): 697.87 ± 0.56 kg/m3 | mass density ([5]; x2 = 0.3): 704.65 ± 0.56 kg/m3 | mass density ([5]; x2 = 0.3999): 712.46 ± 0.56 kg/m3 | mass density ([5]; x2 = 0.5): 721.44 ± 0.56 kg/m3 | mass density ([5]; x2 = 0.6001): 731.85 ± 0.57 kg/m3 | mass density ([5]; x2 = 0.7): 744.14 ± 0.58 kg/m3 | mass density ([5]; x2 = 0.7999): 758.95 ± 0.58 kg/m3 | mass density ([5]; x2 = 0.85): 767.56 ± 0.59 kg/m3 | mass density ([5]; x2 = 0.9): 777.1 ± 0.6 kg/m3 | mass density ([5]; x2 = 0.9501): 787.71 ± 0.6 kg/m3

CCCCCO [pentan-1-ol]
mass density [1]: 810.8 ± 0.66 kg/m3 | refractive index [2]: 1.4078 ± 0.0007

CCCCO [butan-1-ol]
mass density [1]: 805.8 ± 0.62 kg/m3 | refractive index [2]: 1.3974 ± 0.0007

CCCCCO [pentan-1-ol] + CC(C)CC(C)(C)C
refractive index ([3]; x1 = 0.0501): 1.38936 ± 0.00046 | refractive index ([3]; x1 = 0.1): 1.38993 ± 0.00046 | refractive index ([3]; x1 = 0.1499): 1.39059 ± 0.00046 | refractive index ([3]; x1 = 0.2017): 1.39135 ± 0.00046 | refractive index ([3]; x1 = 0.3001): 1.39297 ± 0.00046 | refractive index ([3]; x1 = 0.4): 1.39478 ± 0.00046 | refractive index ([3]; x1 = 0.5001): 1.3967 ± 0.00046 | refractive index ([3]; x1 = 0.6001): 1.3987 ± 0.00046 | refractive index ([3]; x1 = 0.7): 1.40077 ± 0.00046 | refractive index ([3]; x1 = 0.7999): 1.40293 ± 0.00046 | refractive index ([3]; x1 = 0.85): 1.40407 ± 0.00046 | refractive index ([3]; x1 = 0.9): 1.40525 ± 0.00046 | refractive index ([3]; x1 = 0.95): 1.40649 ± 0.00046 | excess molar enthalpy ([4]; x1 = 0.05): 0.09 ± 0.000956 kcal/mol | excess molar enthalpy ([4]; x1 = 0.0998): 0.1135 ± 0.0011 kcal/mol | excess molar enthalpy ([4]; x1 = 0.15): 0.127 ± 0.00117 kcal/mol | excess molar enthalpy ([4]; x1 = 0.1996): 0.1326 ± 0.00122 kcal/mol | excess molar enthalpy ([4]; x1 = 0.2997): 0.1439 ± 0.00129 kcal/mol | excess molar enthalpy ([4]; x1 = 0.3999): 0.1413 ± 0.00129 kcal/mol | excess molar enthalpy ([4]; x1 = 0.4998): 0.1317 ± 0.00122 kcal/mol | excess molar enthalpy ([4]; x1 = 0.5999): 0.109 ± 0.00108 kcal/mol | excess molar enthalpy ([4]; x1 = 0.7): 0.091 ± 0.000956 kcal/mol | excess molar enthalpy ([4]; x1 = 0.8): 0.063 ± 0.000789 kcal/mol | excess molar enthalpy ([4]; x1 = 0.85): 0.0472 ± 0.000717 kcal/mol | excess molar enthalpy ([4]; x1 = 0.9): 0.0321 ± 0.000645 kcal/mol | excess molar enthalpy ([4]; x1 = 0.95): 0.015 ± 0.000574 kcal/mol | mass density ([5]; x1 = 0.0501): 691.14 ± 0.56 kg/m3 | mass density ([5]; x1 = 0.1): 695.2 ± 0.57 kg/m3 | mass density ([5]; x1 = 0.1499): 699.5 ± 0.57 kg/m3 | mass density ([5]; x1 = 0.2017): 704.19 ± 0.57 kg/m3 | mass density ([5]; x1 = 0.3001): 713.84 ± 0.58 kg/m3 | mass density ([5]; x1 = 0.4): 724.6 ± 0.59 kg/m3 | mass density ([5]; x1 = 0.5001): 736.36 ± 0.6 kg/m3 | mass density ([5]; x1 = 0.6001): 749.12 ± 0.61 kg/m3 | mass density ([5]; x1 = 0.7): 762.91 ± 0.62 kg/m3 | mass density ([5]; x1 = 0.7999): 777.72 ± 0.63 kg/m3 | mass density ([5]; x1 = 0.85): 785.54 ± 0.64 kg/m3 | mass density ([5]; x1 = 0.9): 793.63 ± 0.65 kg/m3 | mass density ([5]; x1 = 0.95): 801.98 ± 0.65 kg/m3

CC(C)CC(C)(C)C [2,2,4-trimethylpentane] + CCCCO
refractive index ([3]; x2 = 0.0501): 1.38897 ± 0.00046 | refractive index ([3]; x2 = 0.1001): 1.38909 ± 0.00045 | refractive index ([3]; x2 = 0.1501): 1.38925 ± 0.00045 | refractive index ([3]; x2 = 0.2): 1.38946 ± 0.00045 | refractive index ([3]; x2 = 0.3001): 1.38999 ± 0.00044 | refractive index ([3]; x2 = 0.3999): 1.39067 ± 0.00044 | refractive index ([3]; x2 = 0.5): 1.39149 ± 0.00043 | refractive index ([3]; x2 = 0.5999): 1.39244 ± 0.00043 | refractive index ([3]; x2 = 0.6999): 1.3935 ± 0.00042 | refractive index ([3]; x2 = 0.8): 1.39466 ± 0.00042 | refractive index ([3]; x2 = 0.85): 1.39527 ± 0.00042 | refractive index ([3]; x2 = 0.9): 1.3959 ± 0.00042 | refractive index ([3]; x2 = 0.95): 1.39654 ± 0.00042 | excess molar enthalpy ([4]; x2 = 0.05): 0.0947 ± 0.00098 kcal/mol | excess molar enthalpy ([4]; x2 = 0.1): 0.1201 ± 0.00115 kcal/mol | excess molar enthalpy ([4]; x2 = 0.1502): 0.1362 ± 0.00124 kcal/mol | excess molar enthalpy ([4]; x2 = 0.2): 0.1404 ± 0.00127 kcal/mol | excess molar enthalpy ([4]; x2 = 0.2995): 0.1489 ± 0.00134 kcal/mol | excess molar enthalpy ([4]; x2 = 0.4): 0.1503 ± 0.00134 kcal/mol | excess molar enthalpy ([4]; x2 = 0.5001): 0.1419 ± 0.00129 kcal/mol | excess molar enthalpy ([4]; x2 = 0.6002): 0.1233 ± 0.00115 kcal/mol | excess molar enthalpy ([4]; x2 = 0.7): 0.0968 ± 0.00098 kcal/mol | excess molar enthalpy ([4]; x2 = 0.8): 0.0686 ± 0.000837 kcal/mol | excess molar enthalpy ([4]; x2 = 0.8499): 0.0532 ± 0.000741 kcal/mol | excess molar enthalpy ([4]; x2 = 0.9): 0.0359 ± 0.000669 kcal/mol | excess molar enthalpy ([4]; x2 = 0.9499): 0.0188 ± 0.000598 kcal/mol | mass density ([5]; x2 = 0.0501): 690.95 ± 0.56 kg/m3 | mass density ([5]; x2 = 0.1001): 694.28 ± 0.56 kg/m3 | mass density ([5]; x2 = 0.1501): 697.81 ± 0.56 kg/m3 | mass density ([5]; x2 = 0.2): 701.56 ± 0.56 kg/m3 | mass density ([5]; x2 = 0.3001): 709.77 ± 0.57 kg/m3 | mass density ([5]; x2 = 0.3999): 718.98 ± 0.57 kg/m3 | mass density ([5]; x2 = 0.5): 729.4 ± 0.57 kg/m3 | mass density ([5]; x2 = 0.5999): 741.16 ± 0.58 kg/m3 | mass density ([5]; x2 = 0.6999): 754.51 ± 0.59 kg/m3 | mass density ([5]; x2 = 0.8): 769.68 ± 0.59 kg/m3 | mass density ([5]; x2 = 0.85): 778.03 ± 0.6 kg/m3 | mass density ([5]; x2 = 0.9): 786.94 ± 0.6 kg/m3 | mass density ([5]; x2 = 0.95): 796.46 ± 0.61 kg/m3

CC(C)CC(C)(C)C [2,2,4-trimethylpentane]
mass density [1]: 687.9 ± 0.56 kg/m3 | refractive index [2]: 1.3889 ± 0.0007
